Columns and labels:
[1] = biological target: Recombinant human Bcl-2 protein (Homo sapiens (Human), UniProt P10415); assay: Bcl-2 TR-FRET Assay; type: binding; conditions: wild type Bcl-2; unit inferred; read-out: Bcl-2 WT
Protocol: Biological Example: Bcl-2 TR-FRET Assay
Compounds disclosed herein were tested for blocking of Bcl-2 protein with its ligand in an assay based on Time-Resolved Fluorescence Resonance Energy Transfer (TR-FRET) methodology. Recombinant human 0.05 nM Bcl-2 protein was pre-incubated with a serial dilution of compounds disclosed herein (top final concentration is 1 uM or 0.1 uM or 0.02 uM or 0.01 uM, 10 points) at room temperature for 0.5 hour in an assay buffer containing 20 mM potassium phosphate buffer, pH 7.5, 50 mM NaCl. 1 mM EDTA, 0.05% Tween-20, 0.01% BSA. Then the FITC labeled Bak peptide Ac-GQVGRQLAIIGDK(FITC)INR-amide (0.5 nM) and MAb Anti 6His Tb cryptate Gold were added to plate and further incubated at room temperature for 1 hour. The TR-FRET signals (337 nm-520 nm-490 nm) were read on BMG PHERAstar FSX instrument. The inhibition percentage of Bcl-2 interaction with its ligand in presence of increasing concentrations of compounds was calculated based on the TR-FRET signals. The IC50 for each compound was derived from fitting the data to the four-parameter logistic equation by Graphpad Prism software or Dotmatics.

[2] = biological target: recombinant human Bcl-2 D103Y protein (Homo sapiens (Human), UniProt P10415, D103Y); assay: Bcl-2-D103Y Biochemical Assay (TR-FRET); type: binding; conditions: for IC50: TR-FRET, FITC labeled Bak peptide; for Ratio of Bcl-2 D103Y/Bcl-2 WT: ratio of IC50
Protocol: Biological Example: Bcl-2-D103Y Biochemical Assay
[…]. The TR-FRET signals (ex337 nm, em490 nm/520 nm) were read on BMG PHERAstar FSX instrument. The inhibition percentage of Bcl-2 D103Y interaction with its ligand in presence of increasing concentrations of compounds was calculated based on the ratio of fluorescence at 490 nm to that at 520 nm. The IC50 for each compound was derived from fitting the data to the four-parameter logistic equation by Dotmatics.

Sequence of Recombinant human Bcl-2 protein (P10415 whole entry): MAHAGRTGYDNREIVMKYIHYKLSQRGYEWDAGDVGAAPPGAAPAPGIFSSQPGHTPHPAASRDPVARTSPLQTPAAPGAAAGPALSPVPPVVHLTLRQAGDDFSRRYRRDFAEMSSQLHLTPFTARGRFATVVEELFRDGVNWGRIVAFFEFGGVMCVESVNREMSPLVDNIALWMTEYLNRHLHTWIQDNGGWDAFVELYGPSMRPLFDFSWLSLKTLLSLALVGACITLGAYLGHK
Sequence of recombinant human Bcl-2 D103Y protein (P10415 whole entry D103Y): as the sequence (P10415 whole entry) above, with D103Y counted along it

| SMILES | IC50 [1] [nM] | IC50 [2] [nM] | Ratio of Bcl-2 D103Y/Bcl-2 WT [2] |
| --- | --- | --- | --- |
| CC(C)c1ccccc1C1CN(C2COC2)CCN1C1CC2(CCN(c3ccc(C(=O)NS(=O)(=O)c4ccc(NC[C@H]5CC[C@](C)(O)CC5)c([N+](=O)[O-])c4)c(Oc4cnc5[nH]ccc5c4)c3)CC2)C1 (single isomer, unassigned) [Example 6a, 2-((1H-pyrrolo[2,3-b]pyridin-5-yl)oxy)-N-((4-((((1r,4r)-4-hydroxy-4-methylcyclohexyl)methyl)amino)-3-nitrophenyl)sulfonyl)-4-(2-((S or R)-2-(2-isopropylphenyl)-4-(oxetan-3-yl)piperazin-1-yl)-7-azaspiro[3.5]nonan-7-yl)benzamide] | 0.0078 | 0.11 | – |
| CC(C)c1ccccc1[C@H]1CN(C2COC2)CCN1C1CC2(CCN(c3ccc(C(=O)NS(=O)(=O)c4ccc(NC[C@H]5CC[C@](C)(O)CC5)c([N+](=O)[O-])c4)c(Oc4cnc5[nH]ccc5c4)c3)CC2)C1 (single isomer, unassigned) [Example 6a, 2-((1H-pyrrolo[2,3-b]pyridin-5-yl)oxy)-N-((4-((((1r,4r)-4-hydroxy-4-methylcyclohexyl)methyl)amino)-3-nitrophenyl)sulfonyl)-4-(2-((S or R)-2-(2-isopropylphenyl)-4-(oxetan-3-yl)piperazin-1-yl)-7-azaspiro[3.5]nonan-7-yl)benzamide] | – | – | 13 |
| CC(C)c1ccccc1C1CN(C(C)C)CCN1C1CC2(CCN(c3ccc(C(=O)NS(=O)(=O)c4ccc(NC[C@H]5CC[C@](C)(O)CC5)c([N+](=O)[O-])c4)c(Oc4cnc5[nH]ccc5c4)c3)CC2)C1 (stereo partly drawn) [Example 3, 2-((1H-pyrrolo[2,3-b]pyridin-5-yl)oxy)-N-((4-((((1r,4r)-4-hydroxy-4-methylcyclohexyl)methyl)amino)-3-nitrophenyl)sulfonyl)-4-(2-(4-isopropyl-2-(2-isopropylphenyl)piperazin-1-yl)-7-azaspiro[3.5]nonan-7-yl)benzamide] | 0.019 | 0.11 | 11 |
| CC(C)c1ccccc1C1CN(Cc2ccc3occc3c2)CCN1C1CC2(CCN(c3ccc(C(=O)NS(=O)(=O)c4ccc(NC[C@H]5CC[C@](C)(O)CC5)c([N+](=O)[O-])c4)c(Oc4cnc5[nH]ccc5c4)c3)CC2)C1 (stereo partly drawn) [Example 96, 2-((1H-pyrrolo[2,3-b]pyridin-5-yl)oxy)-4-(2-(4-(benzofuran-5-ylmethyl)-2-(2-isopropylphenyl)piperazin-1-yl)-7-azaspiro[3.5]nonan-7-yl)-N-((4-((((1r,4r)-4-hydroxy-4-methylcyclohexyl)methyl)amino)-3-nitrophenyl)sulfonyl)benzamide] | 0.041 | 0.23 | 5.6 |
| COc1ccc(N(C)C2CCN(C3CC4(CCN(c5ccc(C(=O)NS(=O)(=O)c6ccc(NC[C@H]7CC[C@](C)(O)CC7)c([N+](=O)[O-])c6)c(Oc6cnc7[nH]ccc7c6)c5)CC4)C3)C(c3ccccc3C(C)C)C2)cc1 (stereo partly drawn) [Example 150] | 0.13 | 0.53 | 4.1 |
| COc1ccc(CN2CCN(C3CC4(C3)CN(c3ccc(C(=O)NS(=O)(=O)c5ccc(NC[C@H]6CC[C@](C)(O)CC6)c([N+](=O)[O-])c5)c(Oc5cnc6[nH]cc(Cl)c6c5)c3)C4)[C@H](c3ccccc3C(C)C)C2)cc1 [Example 207, 2-((3-chloro-1H-pyrrolo[2,3-b]pyridin-5-yl)oxy)-N-((4-((((1r,4r)-4-hydroxy-4-methylcyclohexyl)methyl)amino)-3-nitrophenyl)sulfonyl)-4-(6-((R)-2-(2-isopropylphenyl)-4-(4-methoxybenzyl)piperazin-1-yl)-2-azaspiro[3.3]heptan-2-yl) benzamide] | 0.2 | 0.22 | 1.1 |

Reference: patent publication US20240376097A1, “BCL-2 Inhibitor” (BeiGene Ltd., priority 2020, published 2024)
